From patent US20230271770A1, “Anti-Viral Pharmaceutical Formulations Administered Via Devices for Lung Targeted Delivery” (priority 2020, published 2023)

Test: Estimated HCQ concentration in alveolar fluid (oral tablets, inhalation)
Parameters: species or system human
Procedure: The HCQ molecules in the plasma can penetrate capillaries outside the alveolar membrane to reach the alveolar lining fluid (“ALF”).
A similar analysis was performed for HCQ administered by inhalation.

CCN(CCO)CCCC(C)Nc1ccnc2cc(Cl)ccc12 (centres unmarked) [HCQ, hydroxychloroquine]
estimated concentration of HCQ in alveolar fluid (after administration of HCQ by inhalation): up to 22 μM
estimated concentration of HCQ in alveolar fluid (oral tablets, Day-1 (800 mg dose, after 2nd 400 mg dose)): 0.45 µM
estimated concentration of HCQ in alveolar fluid (oral tablets, Day-1 after the 1st 400 mg dose): 0.23 µM
estimated concentration of HCQ in alveolar fluid (oral tablets, Day-2): 0.67 µM
estimated concentration of HCQ in alveolar fluid (oral tablets, Day-5 (total dose of 2,400 mg)): 1.3 µM
